Target: T1, Lipoprotein-Related Phospholipase A2 (Lp-PLA2) in Human Plasma (Homo sapiens, UniProt Q13093)
T1 construct: 40 μL of equally-divided and thawed mixed human plasma is pre-added; from tissue; host or cells: mixed (pooled) human plasma
T1 sequence (Q13093 22-441): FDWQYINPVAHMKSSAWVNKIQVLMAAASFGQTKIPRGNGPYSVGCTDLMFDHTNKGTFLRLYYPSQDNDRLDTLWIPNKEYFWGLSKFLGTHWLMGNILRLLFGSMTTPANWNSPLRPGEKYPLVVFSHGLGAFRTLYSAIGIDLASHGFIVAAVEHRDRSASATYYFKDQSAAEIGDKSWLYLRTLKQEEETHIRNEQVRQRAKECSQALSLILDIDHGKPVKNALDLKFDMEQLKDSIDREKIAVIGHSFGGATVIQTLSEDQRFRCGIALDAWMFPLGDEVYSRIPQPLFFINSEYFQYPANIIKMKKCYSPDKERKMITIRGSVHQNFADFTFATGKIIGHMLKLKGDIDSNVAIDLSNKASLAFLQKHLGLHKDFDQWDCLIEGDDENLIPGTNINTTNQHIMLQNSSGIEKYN
Assay: Determination of Lp-PLA2 in human plasma (Thio-PAF assay)
Format: biochemical
Conditions: mixed human plasma, 2-thio-PAF substrate, 30 minutes pre-incubation at room temperature
Description: Determination of Lipoprotein-Related Phospholipase A2 (Lp-PLA2) in Human Plasma.
Human plasma determination utilizes a thioester analogue of phosphatidylcholine (PAF), where hydrolysis leads to the formation of phospholipids containing free thiol groups. The amount of the thiol groups is continuously determined by reacting with CPM (7-diethylamino-3-(4′-maleimidophenyl)-4-methylcoumarin), which is maleimide with increased fluorescence after Michael addition of the thiol groups. This determination can detect the activity of Lp-PLA2 in human plasma, for example, determined by the specific inhibition of the Lp-PLA2 inhibitors.
Thio-PAF determination, as quenched 75 μL determination, is carried out. A compound source plate is prepared by preparing a 1:3 (volume) series of diluents of each compound in pure DMSO on a 96-well microplate. A Rainin multi-channel pipette is used to transfer 3 μL of a compound on the compound source plate into a 96-well microplate where 57 μL of a determination buffer is pre-added, and the compound on the source plate is diluted by 20 folds. The above determination buffer contains 50 mM HEPES (pH 7.4), 150 mM NaCl, and 1 mM CHAPS. A Rainin multi-channel pipette is used to transfer 1 μL of the compound subjected to 20-fold dilution into a 96-well Greiner 655076 (black) microplate where 40 μL of equally-divided and thawed mixed human plasma is pre-added. The plate is oscillated for 20 seconds in an Elisa plate oscillator to be mixed evenly. After 30 minutes of pre-incubation at the room temperature, a Rainin multi-channel pipette is used to add 10 μL of a substrate solution to a 96-well Greiner 655076 (black) microplate, and the substrate solution contains 2.5 mM 2-thio-PAF [from ethanol mother liquor], 32 μM CPM [from DMSO mother liquor] and 3.2 mM NEM (N-ethylmaleimide) [newly prepared in DMSO for each experiment] in a determination buffer composed of 50 mM HEPES (pH 7.4), 150 mM NaCl, and 1 mM CHAPS. After 2 minutes, 25 μL of a 5% trifluoroacetic acid (TFA) aqueous solution is used for quenching the reaction. The plate is centrifuged at 2000 rpm for 1 minute. A Biotek Synergy H1 (H1MF) Elisa reader is used to read the plate at ex:380/em:485. GraphPad Prism 6.0 and Excel are used for IC50 data, curve, and QC analysis.

## CCc1c(OCc2ccc(Oc3ccnc(C(F)(F)F)c3)c(F)c2)nc(=O)n2c1N1C[C@@H]3C[C@@]1(CC2)CO3 [Example 60, (7aS,10S)-1-ethyl-2-((3-fluoro-4-((2-(trifluoromethyl)pyrid-4-yl)oxy)benzyl)oxy)-6,7,10, 11-tetrahydro-4H, 8H-7a,10-methyl-pyrimidinyl [6′,1′:2,3] pyrimidinyl[6,1-c] [1,4]oxazin-4-one]
  IC50: 12.2 nM

## O=c1nc(OCc2cc(F)c(Oc3ccnc(Cl)c3)c(F)c2)c(F)c2n1CC[C@]13CO[C@H](CN21)C3 [Example 61, (7aS, 10S)-2-((4-((2-chloropyrid-4-yl)oxy)-3,5-difluorobenzyl)oxy)-1-fluoro-6,7,10,11-tetrahydro-4H,8H-7a, 10-methylamino-pyrimidine[6′,1′:2,3] pyrimidine[6,1-c] [1,4]oxazin-4-one]
  IC50: 7 nM

## COc1c(OCc2ccc(Oc3ccnc(C(F)(F)F)c3)c(F)c2)nc(=O)n2c1N1C[C@@H]3C[C@@]1(CC2)CO3 [Example 62, (7aS,10S)-2-((3-fluoro-4-((2-(trifluoromethyl)pyrid-4-yl)oxy)benzyl)oxy)-1-methoxy-6,7,10, 11-tetrahydro-4H, 8H-7a,10-methyl-pyrimidinyl [6′,1′:2,3] pyrimidinyl[6,1-c] [1,4]oxazin-4-one]
  IC50: 5.2 nM

## COc1c(OCc2cc(F)c(Oc3ccnc(OC(F)(F)F)c3)c(F)c2)nc(=O)n2c1N1C[C@@H]3C[C@@]1(CC2)CO3 [Example 63]
  IC50: 5.5 nM

## N#Cc1c(OCc2ccc(Oc3ccnc(C(F)(F)F)c3)c(F)c2)nc(=O)n2c1N1CCCC1CC2 (centres unmarked) [Example 64, 2-((3-fluoro-4-((2-(trifluoromethyl)pyrid-4-yl)oxy)benzyl)oxy)-4-oxo-6,7,7a,8,9,10-hexahydro-4H-pyrimidinyl [1,6-a]pyrrolo [1,2-c]pyrimidine-1-nitrile]
  IC50: 5.8 nM

— patent publication US20240246995A1, “PYRIMIDINONE DERIVATIVE AND PREPARATION METHOD THEREFOR, PHARMACEUTICAL COMPOSITION, AND USE” (SHANGHAI SIMR BIOTECHNOLOGY CO., LTD., priority 2021, published 2024)
